Patent US20240317735A1, “HYDROISOQUINOLINE OR HYDRONAPHTHYRIDINE COMPOUNDS FOR THE TREATMENT OF AUTOIMMUNE DISEASE” (Hoffmann-La Roche Inc., priority 2020, published 2024)

Columns and labels:
[1] = Human microsome stability assay; type: in vitro ADME; settings: for Clearance of Human microsome: 1 μM test compound, 0.5 mg/mL liver microsomal protein, 37° C., pH 7.4; for human liver microsome stability (in words): qualitative statement
Protocol: The human microsomal stability assay is used for early assessment of metabolic stability of a test compound in human liver microsomes.
Human liver microsomes (Cat. NO.: 452117, Corning, USA; Cat. NO.: H2610, Xenotech, USA) were preincubated with test compound for 10 minutes at 37° C. in 100 mM potassium phosphate buffer, pH 7.4. The reactions were initiated by adding NADPH regenerating system. The final incubation mixtures contained 1 μM test compound, 0.5 mg/mL liver microsomal protein, 1 mM MgCl2, 1 mM NADP, 1 unit/mL isocitric dehydrogenase and 6 mM isocitric acid in 100 mM potassium phosphate buffer, pH 7.4. After incubation times of 0, 3, 6, 9, 15 and 30 minutes at 37° C., 300 μL of cold acetonitrile (including internal standard) was added to 100 μL incubation mixture to terminate the reaction. Following precipitation and centrifugation, the amount of compound remaining in the samples were determined by LC-MS/MS. Controls of no NADPH regenerating system at zero and 30 minutes were also prepared and analyzed.

TLR9 = target: T1, TLR9 (Homo sapiens, UniProt Q9NR96); settings: qualitative statement on compounds of WO2018047081; cited from earlier work
T1 sequence (Q9NR96 26-1032): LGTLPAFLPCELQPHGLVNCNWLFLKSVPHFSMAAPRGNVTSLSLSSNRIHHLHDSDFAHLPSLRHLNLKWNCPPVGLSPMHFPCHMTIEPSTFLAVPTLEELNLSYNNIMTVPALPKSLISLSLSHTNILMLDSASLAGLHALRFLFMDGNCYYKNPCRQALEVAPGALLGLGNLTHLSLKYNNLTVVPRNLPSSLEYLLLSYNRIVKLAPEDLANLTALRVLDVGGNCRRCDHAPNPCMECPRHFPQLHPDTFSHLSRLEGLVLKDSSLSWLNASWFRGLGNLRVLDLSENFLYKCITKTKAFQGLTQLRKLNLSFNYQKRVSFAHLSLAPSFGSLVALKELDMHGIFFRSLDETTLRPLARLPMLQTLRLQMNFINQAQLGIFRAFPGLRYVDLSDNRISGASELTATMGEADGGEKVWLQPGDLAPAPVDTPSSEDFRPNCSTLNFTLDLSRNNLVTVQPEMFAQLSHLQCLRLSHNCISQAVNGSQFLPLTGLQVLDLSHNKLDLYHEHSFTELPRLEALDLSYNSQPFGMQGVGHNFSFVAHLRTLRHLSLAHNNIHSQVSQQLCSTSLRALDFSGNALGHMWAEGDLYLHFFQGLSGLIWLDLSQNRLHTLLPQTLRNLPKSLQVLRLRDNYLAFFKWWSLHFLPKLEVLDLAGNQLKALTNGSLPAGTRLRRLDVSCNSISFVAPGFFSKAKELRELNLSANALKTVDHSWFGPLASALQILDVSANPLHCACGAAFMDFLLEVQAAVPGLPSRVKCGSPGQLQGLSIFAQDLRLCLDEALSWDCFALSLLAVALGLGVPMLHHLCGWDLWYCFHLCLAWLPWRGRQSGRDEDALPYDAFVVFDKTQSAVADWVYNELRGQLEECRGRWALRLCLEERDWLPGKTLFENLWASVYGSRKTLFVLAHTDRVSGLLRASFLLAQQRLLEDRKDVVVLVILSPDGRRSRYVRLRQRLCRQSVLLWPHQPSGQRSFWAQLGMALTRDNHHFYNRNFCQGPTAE

Clearance of Human microsome [1] [mL/min/kg] | human liver microsome stability (in words) [1] | SMILES | TLR9 activity (in words) (TLR9)
6.2 | – | C[C@H]1CN(c2ccnc3c2cnn3C)Cc2ccc(N3C[C@@H](N)[C@](C)(O)C3)cc21 [Example 36, (3R,4R)-4-amino-3-methyl-1-[(4R)-4-methyl-2-(1-methylpyrazolo[3,4-b]pyridin-4-yl)-3,4-dihydro-1H-isoquinolin-6-yl]pyrrolidin-3-ol] | –
6.2 | – | C[C@H]1CN(c2ccnc3c2cnn3C)Cc2ccc(N3CC[N+](C)(C)CC3)cc21.[Cl-] [Example 39, (4R)-6-(4,4-dimethylpiperazin-4-ium-1-yl)-4-methyl-2-(1-methylpyrazolo[3,4-b]pyridin-4-yl)-3,4-dihydro-1H-isoquinoline chloride] | –
16.3 | poor human liver microsome stability | Cc1cc(N2CCc3c(c(C)nn3CC34CCC(NC(=O)[C@@H]5COCCN5)(CC3)CC4)C2)c2cnn(C)c2n1 [Example N8, reference compound] | much lower TLR9 activity
18.2 | poor human liver microsome stability | Cc1cc(N2CCc3c(c(C)nn3CC34CCC(N(C)C5CCC5)(CC3)CC4)C2)c2cnn(C)c2n1 [Example N79, reference compound] | best TLR9 activity
